Structures are written as SMILES. “And” between values parts separate entries of the source, which are not always exact repeats. Identical values can stand only once.

A word on the melting point: it is the temperature, or range, at which the solid turns liquid.

In the first series the target is T1, human PR (Homo sapiens, UniProt P06401).
T1 construct: expressed in transfected cells; host or cells: CV-1 cells (electroporated with pLEM-hPR-B and pGL3-2xPRE-luciferase)
T1 sequence (P06401 1-933): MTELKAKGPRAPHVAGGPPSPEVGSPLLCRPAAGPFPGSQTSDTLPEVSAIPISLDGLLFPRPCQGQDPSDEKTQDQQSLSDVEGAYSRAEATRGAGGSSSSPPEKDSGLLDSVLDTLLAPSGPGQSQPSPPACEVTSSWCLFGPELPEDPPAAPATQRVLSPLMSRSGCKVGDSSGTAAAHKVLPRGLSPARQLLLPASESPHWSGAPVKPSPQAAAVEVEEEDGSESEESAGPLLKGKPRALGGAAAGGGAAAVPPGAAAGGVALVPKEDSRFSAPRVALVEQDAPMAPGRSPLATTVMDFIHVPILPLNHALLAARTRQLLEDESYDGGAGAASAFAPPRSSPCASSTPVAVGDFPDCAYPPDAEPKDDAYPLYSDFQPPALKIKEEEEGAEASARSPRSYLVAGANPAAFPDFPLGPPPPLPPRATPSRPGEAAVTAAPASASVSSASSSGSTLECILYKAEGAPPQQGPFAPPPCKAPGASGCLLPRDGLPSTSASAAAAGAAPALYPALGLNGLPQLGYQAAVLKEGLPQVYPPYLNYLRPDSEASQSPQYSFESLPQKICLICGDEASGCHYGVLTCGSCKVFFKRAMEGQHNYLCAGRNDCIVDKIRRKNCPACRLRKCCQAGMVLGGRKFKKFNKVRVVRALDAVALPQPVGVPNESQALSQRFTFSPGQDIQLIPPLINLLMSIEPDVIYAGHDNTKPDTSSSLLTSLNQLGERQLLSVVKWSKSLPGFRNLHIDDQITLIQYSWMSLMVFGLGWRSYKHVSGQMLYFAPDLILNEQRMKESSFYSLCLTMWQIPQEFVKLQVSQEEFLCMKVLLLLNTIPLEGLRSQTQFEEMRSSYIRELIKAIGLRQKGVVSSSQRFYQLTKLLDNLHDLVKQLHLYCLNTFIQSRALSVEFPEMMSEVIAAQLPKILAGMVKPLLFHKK
Put plainly: PRE-luciferase assay in CV-1 cells. It counts as cell-based. To be noted: CV-1 cells co-transfected with human PR and PRE-luciferase; decrease in 3 nM progesterone induced PRE-luciferase activity; read-out: hPR CV-1 IC50.
As for `CC1OC(C)(C)Nc2ccc(-c3cccc([N+](=O)[O-])c3)cc21` (stereo not drawn) [Compound 3, 6-(3-Nitro-phenyl)-2,2,4,-trimethyl-1,4-dihydro-2H-benzo[d][1,3]oxazine], the IC50 is 1680 nM.

The series is the same for the next values; noted with them: read-out: hPR CV-1 IC50.
For the compound `CC1(C)OC(C)(C(F)(F)F)Nc2ccc(-c3cccc(Cl)c3)cc21` (stereo not drawn) [Compound 2, 6-(3-Chloro-phenyl)-2,4,4-trimethyl-2-trifluoromethyl-1,4-dihydro-2H-benzo[d][1,3]oxazine], the IC50 came to 50 nM.

The subject of another series is rat uterine decidualization. The series is described as follows: Rat decidualization assay. It counts as in vivo. Particulars: p.o.; half-maximal decrease in EC50 progesterone induced decidual response, rats.
With `CC#C[C@]1(O)CC[C@H]2[C@@H]3CCC4=CC(=O)CCC4=C3[C@@H](c3ccc(N(C)C)cc3)C[C@@]21C` [RU 486], the IC50 was 0.21 mg/kg and 0.14 mg/kg.

Still in this series, the particulars now being: s.c.; half-maximal increase in decidual response (uterine wet weight), ovariectomized rats; individual studies.
On to `C#C[C@]1(O)CC[C@H]2[C@@H]3CCC4=CC(=O)CC[C@@H]4[C@H]3CC[C@@]21CC` [Levonorgestrel], for which the EC50 is 0.08 mg/kg and 0.12 mg/kg and 0.09 mg/kg (2×). Take `C#C[C@]1(O)CC[C@H]2[C@@H]3CCC4=CC(=O)CC[C@@H]4[C@H]3C(=C)C[C@@]21CC` [3-Ketodesogestrel]: the EC50 is 0.10 mg/kg and 0.06 mg/kg and 0.11 mg/kg.

System in a further series: not given
Assay: not given
Conditions: not given
`CN1C(=O)Nc2ccc(-c3cccc(Cl)c3)cc2C1(C)C1CC1` (stereo not drawn) [Example 10, 6-(3-Chlorophenyl)-4-cyclopropyl-3,4-dimethyl-3,4-dihydro-1H-quinazolin-2-one] had a melting point of 193 to 194 °C. Compound `CC1Nc2ccc(-c3cc(F)cc(C#N)c3)cc2C(C)(C)O1` (stereo not drawn) [Example 14, 3-Fluoro-5-(2,4,4-trimethyl-1,4-dihydro-2H-3,1-benzoxazin-6-yl)benzonitrile] returned a melting point of 163 to 164 °C. `CC1(C2CC2)NC(=O)Nc2ccc(-c3cccc(Cl)c3)cc21` (stereo not drawn) [Example 9, 6-(3-Chlorophenyl)-4-cyclopropyl-4-methyl-3,4-dihydro-1H-quinazolin-2-one]: the melting point fell in the range of 125 to 127 °C. The same measure, in the same setting: with `Cc1cc(C#N)sc1-c1ccc2c(c1)C(C)(C)OC(C)N2` (stereo not drawn) [Example 16, 4Methyl-5-(2,4,4-trimethyl-1,4-dihydro-2H-3,1-benzoxazin-6-yl)thiophene-2-carbonitrile] the figure was 145 to 146 °C; with `CC1(C)CC(=O)Nc2ccc(-c3cccc(Cl)c3)cc21` [Example 11, 6-(3-Chloro-phenyl)-4,4-dimethyl-3,4-dihydro-1H-quinolin-2-one], 211 to 215 °C; with `CC1Nc2ccc(-c3cccc(Cl)c3)cc2C(C)(C)O1` (stereo not drawn) [Example 28, 6-(3-Chlorophenyl)-2,4,4-trimethyl-1,4-dihydro-2H-3,1-benzoxazine], 144 to 146 °C. Take `CC1Nc2ccc(-c3ccc(C#N)n3C)cc2C(C)(C)O1` (stereo not drawn) [Example 22, 1-Methyl-5-(2,4,4-trimethyl-1,4-dihydro-2H-3,1-benzoxazin-6-yl)-1H-pyrrole-2-carbonitrile]: the melting point fell in the range of 195 to 196 °C.

In turn, `CC1Nc2ccc(-c3ccc(F)c(Cl)c3)cc2C(C)(C)O1` (stereo not drawn) [Example 29, 6-(3-Chloro-4-fluorophenyl)-2,4,4-trimethyl-1,4-dihydro-2H-3,1-benzoxazine] returned a melting point of 173 to 175 °C. Compound `CC1Nc2ccc(-c3csc(C#N)c3)cc2C(C)(C)O1` (stereo not drawn) [Example 15, 4-(2,4,4-Trimethyl-1,4-dihydro-2H-3,1-benzoxazin-6-yl)thiophene-2carbonitrile] gave a melting point of 175 to 176 °C.

`CC1OC(C)(C)c2cc(-c3ccc(C#N)n3C(=O)OC(C)(C)C)ccc2N1C(=O)OCC1c2ccccc2-c2ccccc21` (stereo not drawn) [Example 19, 9H-Fluoren-9-ylmethyl-6-[1-(tert-butoxycarbonyl)-5-cyano-1H-pyrrol-2-yl]-2,4,4-trimethyl-2H-3,1-benzoxazine-1(4H)-carboxylate] came in with a melting point of 135 to 136 °C. For `CC1(C)OC(C(F)(F)F)Nc2ccc(-c3cccc(Cl)c3)cc21` (stereo not drawn) [Example 39, 6-(3-Chlorophenyl)-4,4-dimethyl-2-(trifluoromethyl)-1,4-dihydro-2H-3,1-benzoxazine], the melting point fell in the range of 108 to 109 °C. For the compound `Cc1cc(C#N)sc1-c1ccc2c(c1)C(C)(C)OC(C(F)(F)F)N2` (stereo not drawn) [Example 38, 5-[4,4-Dimethyl-2-(trifluoromethyl)-1,4-dihydro-2H-3,1-benzoxazin-6-yl]-4-methylthiophene-2-carbonitrile], the melting point is 97 to 98 °C. With `CC1Nc2ccc(-c3cccc(F)c3)cc2C(C)(C)O1` (stereo not drawn) [Example 27, 6-(3-Fluorophenyl)-2,4,4-trimethyl-1,4-dihydro-2H-3,1-benzoxazine], the melting point lay within 139 to 140 °C. On the same count and under the same terms, as for `C[C@@H]1Nc2ccc(-c3cc(F)cc(C#N)c3)cc2[C@](C)(c2ccccc2)O1` [Example 17, 3-[(2R,4S)-2,4-Dimethyl-4-phenyl-1,4-dihydro-2H-3,1-benzoxazin-6yl]-5-fluorobenzonitrile], the figure is 128 to 129 °C. Take `CC1Nc2ccc(-c3ccc(F)c(C#N)c3)cc2C(C)(C)O1` (stereo not drawn) [Example 30, 2-Fluoro-5-(2,4,4-trimethyl-1,4-dihydro-2H-3,1-benzoxazin-6-yl)benzonitrile]: the melting point fell in the range of 184 to 186 °C. As to `CC1Nc2ccc(-c3coc(C#N)c3)cc2C(C)(C)O1` (stereo not drawn) [Example 31, 4-(2,4,4-Trimethyl-1,4-dihydro-2H-3,1-benzoxazin-6-yl)2-furonitrile], the melting point lay in the range of 116 to 118 °C. With `CC1Nc2ccc(-c3ccc(C#N)[nH]3)cc2C(C)(C)O1` (stereo not drawn) [Example 20, 5-(2,4,4-Trimethyl-1,4-dihydro-2H-3,1-benzoxazin-6-yl)-1H-pyrrole-2-carbonitrile], the melting point is 201 to 202 °C. Consider `CC1(C)CC(=S)Nc2ccc(-c3cc(F)cc(C#N)c3)cc21` [Example 46, 3-(4,4-Dimethyl-2-thioxo-1,2,3,4-tetrahydroquinolin-6-yl)-5-fluorobenzonitrile], for which the melting point was 240 to 242 °C (dec.).

In turn, `CC1(C)CC(=O)Nc2ccc(-c3cc(F)cc(C#N)c3)cc21` [Example 41, 3-(4,4-Dimethyl-2-oxo-1,2,3,4-tetrahydroquinolin-6-yl)-5-fluorobenzonitrile] returned a melting point of 249 to 250 °C.

With `CC1Nc2ccc(-c3csc(C#N)c3)cc2C2(CCCCC2)O1` (stereo not drawn) [Example 26, 4-(2-Methylspiro[2H-3,1-benzoxazine-4,1′-cyclohexane]-6-yl)2-thiophenecarbonitrile], the melting point lay within 111 to 112 °C. On the same count and under the same terms, with `CC1(C)CC(=O)Nc2ccc(-c3cccc(F)c3)cc21` [Example 40, 6-(3-Fluorophenyl)-4,4-dimethyl-3,4-dihydroquinolin-2(1H)one] the figure was 190 to 192 °C; with `CC1(C)CC(=S)Nc2ccc(-c3cccc(F)c3)cc21` [Example 44, 6-(3-Fluorophenyl)-4,4-dimethyl-3,4-dihydroquinoline-2(1H)-thione], 209 to 211 °C; with `CC1(C)OC(C(F)(F)F)Nc2ccc(-c3cc(F)cc(C#N)c3)cc21` (stereo not drawn) [Example 32, 3-[4,4-Dimethyl-2-(trifluoromethyl)-1,4-dihydro-2H-3,1-benzoxazin-6-yl]-5-fluorobenzonitrile], 102 to 103 °C. As to `CC1(C)CC(=S)Nc2ccc(-c3cccc(Cl)c3)cc21` [Example 43, 6-(3-Chlorophenyl)-4,4-dimethyl-3,4dihydroquinoline-2(1H)-thione], the melting point is 197 to 198 °C. In turn, `CC1OC(C)(C)c2cc(-c3ccc(C#N)n3C)ccc2N1C(=O)OCC1c2ccccc2-c2ccccc21` (stereo not drawn) [Example 21, 9H-Fluoren-9-ylmethyl 6-(5-cyano-1-methyl-1H-pyrrol-2-yl)-2,4,4-trimethyl-2H-3,1-benzoxazine-1(4H)-carboxylate] yielded a melting point of 63 to 64 °C.
